Laboratory results reported in patent publication US20100119483A1, “PEPTIDE VIRAL ENTRY INHIBITORS” (Schering Corporation, priority 2004, published 2010).

Tests used:
[1] = test system: amphotropic murine leukemia virus; test: AMLV pseudotyped virus entry counter-screen, same infection protocol; type: cell-based; settings: peptide library screen; cell entry inhibition vs uninhibited control
Experimental: Infection of hepatoma cell lines with HCV pseudotype particles and screen for inhibitory peptides. The hepatoma cells, Huh7, was seeded at 8000 cells in 90 ul medium in 96-well plate. In the case of the inhibitor screen, the inhibitor was incubated with cells for one hour at 37° C. and then 50 ul viral supernatant was added to the cells 24 hours after seeding. The viral stock was pre-tittered and diluted to yield approximately 10,000 to 20,000 RLU. The cells were incubated at 37° C. with 5% CO2 for additional 72 hours and were harvested for luciferase assay. Peptide stocks were prepared in 100% DMSO at 10 mg/ml and were first screened at 100 ug/ml and then a dose responsive curve was generated with 10 points 3-fold titration starting from 100 ug/ml.
The specificity of the peptides were counter-screened with AMLV and HIV pseudotyped viruses using the same infection protocol.

HCV pseudoparticles = test: HCV pseudoparticle (HCVpp) entry assay in Huh7 hepatoma cells, luciferase readout; type: cell-based, hepatitis C virus; settings: peptide library screen, first screened at 100 ug/ml; cell entry inhibition vs uninhibited control
Procedure, shortened: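 Huh7 cells were pre-treated with peptide for 1 h at 37 °C before exposure to HCV E1/E2-pseudotyped HIV luciferase particles made in 293T cells, followed by 72 h culture and luciferase readout. Peptides were tested at 10 points, 3-fold, from 100 ug/ml; particles lacking envelope served as non-specific entry control.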

Row | Substance | AMLVpp % inh [1] [%] | HCVpp % inh (HCV pseudoparticles) [%]
1 | D-M-V-A-G-A-H-W-G-V-L-A-G-L-A-Y [SEQ ID NO: 25] | 14 | 27
2 | D-V-L-L-L-N-N-T-R-P-P-Q-G-N-W-F [SEQ ID NO: 52] | 16 | 10
3 | N-I-G-G-I-G-N-K-T-L-T-C-P-T-D-C [SEQ ID NO: 57] | 20 | 39
4 | P-C-T-V-N-F-T-I-F-K-V-R-M-Y-V-G (PCTVNFTIFKVRMYVG; HCV peptide) [SEQ ID NO: 64] | −30 | −2
5 | A-Y-Y-S-W-V-G-N-W-A-K-V-L-I-V-M [SEQ ID NO: 27] | −2 | 39
6 | L-L-L-A-D-A-R-V-C-A-C-L-W-M-M-L [SEQ ID NO: 79] | 16 | 77
7 | N-D-S-L-N-T-G-F-L-A-A-L-F-Y-V-H [SEQ ID NO: 37] | 15 | 14
8 | A-Q-V-C-G-P-V-Y-C-F-T-P-S-P-V-V [SEQ ID NO: 47] | −8 | 40
9 | S-T-T-E-W-Q-V-L-P-C-S-F-T-T-L-P [SEQ ID NO: 71] | 18 | 44
10 | Y-E-V-R-N-V-S-G-V-Y-H-V-T-N-D-C [SEQ ID NO: 3] | 18 | 35
11 | V-P-C-V-R-E-N-N-S-S-R-C-W-V-A-L [SEQ ID NO: 8] | 14 | −22
12 | G-S-G-P-W-L-T-P-R-C-L-V-H-Y-P-Y (GSGPWLTPRCLVHYPY; HCV peptide) [SEQ ID NO: 61] | −8 | −15
13 | E-L-S-P-L-L-L-S-T-T-E-W-Q-V-L-P [SEQ ID NO: 70] | 44 | 10
14 | G-C-P-E-R-M-A-S-C-S-P-I-D-A-F-A [SEQ ID NO: 40] | −4 | 35
15 | D-C-S-N-A-S-I-V-Y-E-A-A-D-M-I-M [SEQ ID NO: 5] | −2 | −4
16 | L-I-H-L-H-Q-N-V-V-D-V-Q-Y-L-Y-G [SEQ ID NO: 74] | 5 | 22
17 | V-D-L-L-V-G-A-A-A-L-C-S-A-M-Y-V [SEQ ID NO: 13] | −13 | 39
18 | P-C-G-I-V-P-A-A-Q-V-C-G-P-V-Y-C [SEQ ID NO: 46] | −2 | 29
